Data from US20260262647A1, “Synergistic Compositions Containing Guanidine” (Thor GmbH, priority 2023, published 2026).

Columns and labels:
Assay type in all cases: cell-based
yeast mixture [1] = experiment: All-purpose detergent inoculated once with yeast mixture, semiquantitative growth evaluation; design: key: 0: No growth; Minimal growth, 1 to 10 colonies visible over the entire streak; 2: Light growth, maximum 100 colonies; Moderate growth, maximum 300 to 400 colonies; Uniform growth, >400 colonies, single colonies still clearly recognizable; 5: Heavy growth, too many colonies to count, but no growth over the entire streak; 6: Full growth, barely any single colonies still apparent, growth over the entire streak; details: Example 38, all-purpose detergent, +100 ppm BIT
Source text: (§1) In examples 35 to 38 below, synergistic interaction between guanidine and antimicrobial substances with respect to microbial infestation was studied using an emulsion paint and a laundry detergent or cleaning composition by adding particular amounts of guanidine salts and isothiazolinones and examining their stability against microbial infestation: […] The laundry detergent was a heavy-duty laundry detergent without preservatives (pH 8.1), and the cleaning composition was an all-purpose detergent without preservatives (pH 7.6), each likewise made in the laboratory, without addition of the otherwise usual conventional preservatives. To each paint was added—individually and in combination—particular concentrations of guanidinium hydrochloride, benzisothiazolinone (BIT), and a mixture of chloromethylisothiazolinone (CIT) and methylisothiazolinone (MIT). The laundry detergent and the cleaning composition were admixed with particular concentrations of guanidinium hydrochloride and benzisothiazolinone (BIT). The resultant batches of the paint thus prepared were inoculated with a mixture of different bacteria species (bacteria mixture B); the batches of the laundry detergent and cleaning compositions thus prepared were inoculated with a yeast mixture. • Pichia manshurica DSM 12249 • Rhodotorula mucilaginosa DSM 12248 • Candida boidinii DSM 13622 • Candida albicans DSM 1386 […] Further steps for establishment of a cell count of the inoculum suspension of 10^8/ml were effected analogously to the production of the bacteria suspension. […] The streaked agar plates were then incubated at 30° C. for 48 hours (bacteria) or at 25° C. for 72 hours (yeasts). After incubation, the bacterial or yeast colonies that have grown on the agar plates were visually evaluated and quantified according to the following scheme: [table]

bacteria mixture B = experiment: Emulsion paint inoculated once with bacteria mixture B, semiquantitative growth evaluation; design: key: 0: No growth; Minimal growth, 1 to 10 colonies visible over the entire streak; 2: Light growth, maximum 100 colonies; Moderate growth, maximum 300 to 400 colonies; Uniform growth, >400 colonies, single colonies still clearly recognizable; 5: Heavy growth, too many colonies to count, but no growth over the entire streak; 6: Full growth, barely any single colonies still apparent, growth over the entire streak; details: Example 35, emulsion paint, +500 ppm BIT
Source text: In examples 35 to 38 below, synergistic interaction between guanidine and antimicrobial substances with respect to microbial infestation was studied using an emulsion paint and a laundry detergent or cleaning composition by adding particular amounts of guanidine salts and isothiazolinones and examining their stability against microbial infestation: […] The laundry detergent was a heavy-duty laundry detergent without preservatives (pH 8.1), and the cleaning composition was an all-purpose detergent without preservatives (pH 7.6), each likewise made in the laboratory, without addition of the otherwise usual conventional preservatives. To each paint was added—individually and in combination—particular concentrations of guanidinium hydrochloride, benzisothiazolinone (BIT), and a mixture of chloromethylisothiazolinone (CIT) and methylisothiazolinone (MIT). The laundry detergent and the cleaning composition were admixed with particular concentrations of guanidinium hydrochloride and benzisothiazolinone (BIT). The resultant batches of the paint thus prepared were inoculated with a mixture of different bacteria species (bacteria mixture B); the batches of the laundry detergent and cleaning compositions thus prepared were inoculated with a yeast mixture. • Pseudomonas spp. (Pseudomonas oleovorans group) DSM 33933 • Pseudomonas aeruginosa DSM 33935 • Pseudomonas oleovorans DSM 33936 • Pseudomonas spec. DSM 33937 • Pseudomonas aeruginosa DSM 33938 […] The cell suspension of the bacteria mixture was produced by growing the individual bacteria at 30° C. for 24 h in liquid culture on a shaker. The growth medium used for the bacteria was Müller-Hinton liquid medium. After growing, the individual liquid cultures were centrifuged, and the cells were resuspended in physiological saline solution. […] The cell count of the inoculum was determined in each case by chamber counting. […] The streaked agar plates were then incubated at 30° C. for 48 hours (bacteria) or at 25° C. for 72 hours (yeasts). After incubation, the bacterial or yeast colonies that have grown on the agar plates were visually evaluated and quantified according to the following scheme: [table]

[2] = system: Pseudomonas spec. DSM 115322; experiment: Minimum inhibitory concentrations and synergy index in Müller-Hinton broth
Description: (§2) Test organisms used were Gram-negative bacterial species from the group of pseudomonads, Pseudomonas putida DSM 115323 and Pseudomonas spec. DSM 115322. For this purpose, mixtures with different concentrations of the respective active substances were prepared and tested for their effect on the pseudomonads. The test was run in Müller-Hinton broth MHB with a cell density of 10^6 microbes per ml. When organic acids are used as a combination partner with the guanidine, MHB was adjusted to pH 5.5.
(§3) The incubation was run in microplates at 30° C. for 48 hours. After 48 hours, the batches were evaluated for turbidity resulting from growth, and optical density was additionally determined photometrically. In this way, the minimum inhibitory concentrations (MICs) of the two actives were determined individually and in combination.
(§4) The calculation was done according to the standard method of F. C. Kull et al., Applied Microbiology, vol. 9 (1961), p. 538.
(§5) This involves calculating the synergy index (SI) by the following formula:
(§6) [formula] • Qa=concentration of component A in the A+B mixture • QA=concentration of component A as the sole biocide • Qb=concentration of component B in the A+B mixture • QB=concentration of component B as the sole biocide
(§7) If the synergy index is greater than 1, this means that there is antagonism. If the synergy index assumes the value 1, this means that the effect of the two biocides/compounds is additive. If the synergy index assumes a value of less than 1, this means that there is synergism between the two biocides/compounds.

yeast mixture [3] = experiment: Laundry detergent inoculated once with yeast mixture, semiquantitative growth evaluation; design: key: 0: No growth; Minimal growth, 1 to 10 colonies visible over the entire streak; 2: Light growth, maximum 100 colonies; Moderate growth, maximum 300 to 400 colonies; Uniform growth, >400 colonies, single colonies still clearly recognizable; 5: Heavy growth, too many colonies to count, but no growth over the entire streak; 6: Full growth, barely any single colonies still apparent, growth over the entire streak; details: Example 37, laundry detergent, +100 ppm BIT
Source text: as §1

[4] = system: Pseudomonas putida DSM 115323; experiment: Minimum inhibitory concentrations and synergy index in Müller-Hinton broth
Description: as §2, §3, §4, §5, §6, §7

Row | SMILES | Yeast growth (yeast mixture [1]; Day 1) | Yeast growth (yeast mixture [1]; Day 3) | Bacterial growth (bacteria mixture B; Day 1) | Bacterial growth (bacteria mixture B; Day 6) | QB: Concentration of BIT as the sole agent that shows an endpoint ([2]; BIT alone, 48 hours at 30° C.) [ppm] | Synergy index Qa/QA + Qb/QB ([2]; guanidine and BIT, Qa, Qb) | Bacterial growth (yeast mixture [3]; Day 1) | Bacterial growth (yeast mixture [3]; Day 3) | QB: Concentration of CIT as the sole agent that shows an endpoint ([4]; CIT alone, 48 hours at 30° C.) [ppm] | Synergy index Qa/QA + Qb/QB ([4]; guanidine and CIT, Qa, Qb)
1 | O=c1[nH]sc2ccccc12 [BIT, 1,2-benzisothiazolin-3-one] | 6 | 4 (Uniform growth, >400 colonies, single colonies still clearly recognizable) | 6 | 6 | 300 | 1.00 | 6 | 4 (Uniform growth, >400 colonies, single colonies still clearly recognizable) |  | 
2 | Cn1sc(Cl)cc1=O [CIT, 5-chloro-2-methyl-4-isothiazolin-3-one] |  |  |  |  |  |  |  |  | 3.0 | 1.00
